Measured values taken from article PMC8267177, “Cyclic Peptoid-Peptide Hybrids as Versatile Molecular Transporters” (Frontiers in Chemistry, 2021).
Entries after “also recorded” stand apart in the source; their conditions may differ. Non-standard residues stand in square brackets, D forms with d. Residues, ends and D or L forms follow the SMILES beside them. *: point of attachment. RhodamineB = CCN(CC)c1ccc2c(-c3ccccc3C(=O)*)c3ccc(=[N+](CC)CC)cc-3oc2c1; Gly(Nα-4-Cl-benzyl) = O=C(O)CNCc1ccc(Cl)cc1; Nphe = O=C(O)CNCc1ccccc1; NBuGly = CCCCNCC(=O)O; Nlys = NCCCCNCC(=O)O

What was measured:
[1] = in vitro; type: cell-based; conditions: human
Protocol: The cytotoxicity of the macrocyclic hybrids 15–24, as well as their conjugates 15-Rhod to 24-Rhod, was examined using a standard MTT assay in human epithelial cervix carcinoma (HeLa) cells. […] ([Mosmann, 1983]; [Tolosa et al., 2015]) After treatment of HeLa cells with different concentrations of the respective macrocycles 15–24 (0.50─50 µM) for 72 h, no significant cytotoxic effects were observed. […] As shown by many research groups that Rhodamine B by itself is not efficiently entering the cells showing therefore an LD50 > 50 μM, we assume that this the toxicity of the Rhodamine moiety might be higher when increasingly localizing in the mitochondria to a higher amount.
In a 96-well plate (Corning® Costar® 3596 96-Well Cell Culture Cluster), 1.0 × 10^4 HeLa-cells per well of a 96 well plate were cultivated for 16 h. Stock solutions of the single compounds in dimethylsulfoxide were diluted to 0.50 µm, 5.00 µm, and 50.0 µm with cell culture medium (DMEM + 10% FBS + 1% P/S) to ensure a final concentration of DMSO below 0.5%. 100 µL of the prepared DMEM diluted compounds were added to each well and the cells were incubated for 72 h. All experiments were performed in triplicates. Cells that were solely treated with the culture medium containing 0.5% of DMSO served as a negative control. After incubation, the positive control (cells in DMSO plus 0.5% DMSO) was treated with 1% Triton-X. To determine the viability of the cells 20 µL of a freshly prepared solution of 3-(4,5-dimethylthiazol-2-yl)-2,5-diphenyltetrazolium bromide (MTT, 2.73 mg/mL, Sigma-Aldrich®) in culture medium were added to each well and incubated at 37 °C for 4 h. The reaction was stopped using 100 µL of Solubilization Solution / Stop Mix (CellTiter 96® Non-Radioactive Cell Proliferation Assay, Promega). After 24 h, the absorption (A) of every well at 595 nm was monitored using a 96-well plate reader (Ultra Microplate Reader ELx808, Biotech Instruments Inc.).

[2] = test system: HeLa cells; assay: Localization assay: cellular uptake and organellar localization by confocal microscopy; type: cell-based, human; conditions: 5 µM, 5 h, 37 °C; for Cellular uptake efficiency: confocal microscopy of Rhodamine B fluorescence (Exc 532 nm, Em 570–620 nm); for Organellar localization (mitochondria): counterstaining with MitoTracker Green, confocal microscopy
Protocol: As 15-Rhod to 24-Rhod were not toxic at 5 µM the following transport experiments were carried out using this concentration. To study their cellular uptake and organellar localization, HeLa cells were treated with 5 µM of the cyclic conjugates 15-Rhod to 24-Rhod for 5 h and eventually imaged using confocal microscopy (for experimental details, see supplemental Material).
FIGURE 4 Localization of the macrocyclic conjugates 15-Rhod to 24-Rhod in HeLa cells. After incubation with a 5.0 µM solution of the respective transporters for 5 h, the cellular uptake was monitored via fluorescent confocal microscopy (Rhodamine B labeled hybrids: λ Exc = 532 nm, λ Em = 570–620 nm; MitoTracker® Green: λ Exc = 488 nm, λ Em = 490–540 nm; Hoechst 33,342: λ Exc = 405 nm, λ Em = 430–490 nm). Counterstaining with MitoTracker® Green visualized mitochondria (green). Staining with 2 μg/ml Hoechst 33,342 indicated nuclei (blue). Scale bar: 10 µm.
In an 8-well chamber slide (µ-Slide 8-Well ibidiTreat, ibidi®), 1.0 × 10^4 HeLa cells per well were cultivated for 16 h. The cyclic hybrids were diluted with DMEM to yield a 5 µM concentration. The cells were treated with the hybrids for 5 h at 37 °C. To monitor the intracellular localization, the cells were counterstained with MitoTracker® (Invitrogen) and 2 µg/mL Hoechst 33342. After washing with DPBS (3 ×), the luminescence was monitored via life-cell imaging using a Leica TCS-SPE confocal microscope (DM2500 inverse microscope, 8 Bit resolution, 1024 × 1024 pixels), equipped with a 1 Airy pinhole aperture (111.5 µm), ACS APO 63.0x/1.30 OIL UV and 40x/1.14 OIL UV objectives and the images were processed by the Leica Application Suite (LAS-AF) Version 2.1.2 build 4530 software. Images were taken with a scanning frequency of 400 Hz. Background noise was averaged by an eight-fold repetition of the scan process. The cyclic hybrids were excited at 532 nm, MitoTracker® Green at 488 nm, and Hoechst 33342 at 405 nm. The exposure was set to minimize oversaturated pixels in the final images. Fluorescence emission was measured at 570–620 nm for the detection of rhodamine B labeled hybrids, at 490–540 nm for the detection of mitochondria, and 430–490 nm for the detection of nuclei.

[3] = test system: HeLa cells; assay: Cellular uptake at 4 °C and 37 °C (CLSM, Figure S1); type: cell-based, human; conditions: 5 µM, 2 h incubation at 4 °C and 37 °C
Description: The molecular transporters 15-Rhod, 20-Rhod and 22-Rhod are characterized by low cytotoxicity, efficient cellular uptake, and high specificity. Thus, they represent the most promising cyclic hybrids capable of the transport of different cargos into mitochondria. […] The capability of hydrophobic structures to function as molecular transporters is also known for so-called hydrophobic CPPs. However, only a few members of this substance class have been discovered yet. ([Xie et al., 2020]; [Desale et al., 2021]) It is assumed, that hydrophobic CPPs may penetrate cellular membranes in a direct, energy-independent manner dispensing with endocytosis. ([Gao et al., 2002]; [Gao et al., 2011]; [Nakayama et al., 2011]; [Guidotti et al., 2017]; [Tian et al., 2017]) The latter leads to a major challenge as molecular transporters might not escape the endosomes and get degraded instead of reaching their designated targets. […] The efficient internalization at a low temperature led us to the assumption that 22-Rhod might directly penetrate the cell membrane. However, the uptake mechanism of macrocyclic hybrids will be further examined.
Figure S1: Confocal Laser Scanning Microscopy (CLSM) images of HeLa cells after 2 h incubation with 5 µM peptoid 22-Rhod at 4 °C (top line, A) and 37 °C (bottom line, B). […]

[4] = test system: cells; conditions: free dye, not efficiently entering the cells; ref many research groups (reference not given); cited from earlier work
Protocol: The cytotoxicity of the macrocyclic hybrids 15–24, as well as their conjugates 15-Rhod to 24-Rhod, was examined using a standard MTT assay in human epithelial cervix carcinoma (HeLa) cells. […] ([Mosmann, 1983]; [Tolosa et al., 2015]) After treatment of HeLa cells with different concentrations of the respective macrocycles 15–24 (0.50─50 µM) for 72 h, no significant cytotoxic effects were observed.

| IC50 at 72 h [1] [µM] | SMILES | Cellular uptake efficiency [2] | Organellar localization (mitochondria) [2] | Mitochondrial uptake at 37 °C and at 4 °C [3] | LD50 of Rhodamine B by itself [4] [µM] |
| --- | --- | --- | --- | --- | --- |
| > 50 | CCN(CC)c1ccc2c(-c3ccccc3C(=O)NCCCC[C@@H]3NC(=O)CN(Cc4ccc(Cl)cc4)C(=O)CN(Cc4ccc(Cl)cc4)C(=O)[C@H](Cc4c[nH]c5ccccc45)NC3=O)c3ccc(=[N+](CC)CC)cc-3oc2c1 [20-Rhod, cyclo-(l-Trp-N1ph^pCl-N1ph^pCl-l-Lys(Rhod))] (cyclo([Gly(Nα-4-Cl-benzyl)][Gly(Nα-4-Cl-benzyl)]K(RhodamineB)W)) | – | – | – | – |
| 30 | CCN(CC)c1ccc2c(-c3ccccc3C(=O)NCCCCN3CC(=O)N(Cc4ccccc4)CC(=O)N[C@@H](Cc4ccccc4)C(=O)N(Cc4ccc(Cl)cc4)CC3=O)c3ccc(=[N+](CC)CC)cc-3oc2c1 [16-Rhod, cyclo-(l-Phe-N1ph^pCl-N4am(Rhod)-N1ph)] (cyclo(F[Gly(Nα-4-Cl-benzyl)][Nlys](RhodamineB)[Nphe])) | – | – | – | – |
| 34 | CCN(CC)c1ccc2c(-c3ccccc3C(=O)NCCCC[C@@H]3NC(=O)CN(Cc4ccccc4)C(=O)CN(Cc4ccccc4)C(=O)[C@H](Cc4c[nH]c5ccccc45)NC3=O)c3ccc(=[N+](CC)CC)cc-3oc2c1 [19-Rhod, cyclo-(l-Trp-N1ph-N1ph-l-Lys(Rhod))] (cyclo(K(RhodamineB)W[Nphe][Nphe])) | – | – | – | – |

The remaining lines, values behind:

| SMILES | IC50 at 72 h [1] [µM] | Cellular uptake efficiency [2] | Organellar localization (mitochondria) [2] | Mitochondrial uptake at 37 °C and at 4 °C [3] | LD50 of Rhodamine B by itself [4] [µM] |
| --- | --- | --- | --- | --- | --- |
| CCCCN1CC(=O)N[C@@H](Cc2ccccc2)C(=O)N[C@@H](Cc2ccccc2)C(=O)N(CCCCNC(=O)c2ccccc2-c2c3ccc(=[N+](CC)CC)cc-3oc3cc(N(CC)CC)ccc23)CC(=O)N(Cc2ccccc2)CC(=O)N(CCCC)CC1=O [24-Rhod, cyclo-(l-Phe-N3m-N3m-N1ph-N4am(Rhod)-l-Phe)] (cyclo(F[Nlys](RhodamineB)[Nphe][NBuGly][NBuGly]F)) | 26 | efficiently taken up; also recorded: high cellular uptake efficiency | mitochondrial specificity | – | – |
| CCN(CC)c1ccc2c(-c3ccccc3C(=O)NCCCCN3CC(=O)N(Cc4ccccc4)CC(=O)N(Cc4ccccc4)CC(=O)N(Cc4ccccc4)CC(=O)N[C@@H](Cc4ccccc4)C(=O)N[C@@H](Cc4ccccc4)C3=O)c3ccc(=[N+](CC)CC)cc-3oc2c1 [22-Rhod, cyclo-(l-Phe-N1ph-N1ph-N1ph-N4am(Rhod)-l-Phe)] (cyclo(FF[Nlys](RhodamineB)[Nphe][Nphe][Nphe])) | 44 | efficiently taken up; also recorded: high cellular uptake efficiency | mitochondrial specificity | occurring at 37 °C as well as at 4 °C | – |
| CCN(CC)c1ccc2c(-c3ccccc3C(=O)NCCCCN3CC(=O)N[C@@H](Cc4ccc(O)cc4)C(=O)N[C@@H](Cc4ccccc4)C(=O)N(Cc4ccccc4)CC3=O)c3ccc(=[N+](CC)CC)cc-3oc2c1 [18-Rhod, cyclo-(l-Phe-N4am(Rhod)-N1ph-l-Tyr)] (cyclo(F[Nphe][Nlys](RhodamineB)Y)) | 33 | not internalized | – | – | – |
| CCN(CC)c1ccc2c(-c3ccccc3C(=O)NCCCCN3CC(=O)N(Cc4ccc(Cl)cc4)CC(=O)N(Cc4ccc(Cl)cc4)CC(=O)N(Cc4ccc(Cl)cc4)CC(=O)N[C@@H](Cc4ccccc4)C(=O)N[C@@H](Cc4ccccc4)C3=O)c3ccc(=[N+](CC)CC)cc-3oc2c1 [23-Rhod, cyclo-(l-Phe-N1ph^pCl-N1ph^pCl-N1ph^pCl-N4am(Rhod)-l-Phe)] (cyclo(F[Nlys](RhodamineB)[Gly(Nα-4-Cl-benzyl)][Gly(Nα-4-Cl-benzyl)][Gly(Nα-4-Cl-benzyl)]F)) | 6 | significantly less efficient | Mitochondrial accumulation | – | – |
| CCCCN1CC(=O)N[C@@H](CCCCN)C(=O)N[C@@H](Cc2ccc(O)cc2)C(=O)N(CCCC)CC1=O [compound 21, cyclo-(l-Tyr-N3m-N3m-l-Lys)] (cyclo(KY[NBuGly][NBuGly])) | > 50 | – | – | – | – |
| CCN(CC)c1ccc2c(-c3ccccc3C(=O)O)c3ccc(=[N+](CC)CC)cc-3oc2c1 [Rhodamine B] | – | – | – | – | > 50 |
